Among the data in PubChem BioAssay (NCI) are TGI values, retold here.

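Briefly, cells in 96-well plates were exposed to five compound concentrations for 48 h, and endpoints were estimated by linear interpolation. TGI: concentration producing complete growth inhibition.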

Holding throughout (assay): NCI anticancer screen, dose series, 48 h
For experiment [1], the system named is A549 NSCLC.
Experiment [2] has as its system ACHN renal.
The subject of experiment [3] is HCT-116 colon.
Experiment [4] deals with IGROV1 ovarian.
In experiment [5] the test system is KM12 colon.
For experiment [6], the system named is OVCAR-3 ovarian.
For experiment [7], the system named is OVCAR-4 ovarian.
Experiment [8] relates to OVCAR-5 ovarian.
Experiment [9] concerns OVCAR-8 ovarian.
Experiment [10] has as its system RPMI-8226 leukemia.
In experiment [11] the test system is SF-268 CNS.
Experiment [12] concerns SK-MEL-2 melanoma.
The test system of experiment [13] is SR leukemia.
Experiment [14] relates to SW-620 colon.
Experiment [15] has as its system UACC-257 melanoma.
Experiment [16] relates to DU-145 prostate.
The test system of experiment [17] is PC-3 prostate.

Consider `COc1cc2c(cc1OC)[C@H]1C(COC(=O)c3ccccc3)CSC(=Nc3ccccc3)N1CC2` (stereo partly specified), for which the TGI in experiment [1], in [2], in experiment [3], in experiment [4], in [5] and in [6] was > 100 µM each time. Also, the TGI in experiment [7], in [8], in experiment [9], in experiment [10], in experiment [11] and in experiment [12] was > 100 µM in each case. Besides, the TGI in [13], in experiment [14] and in experiment [15] was > 100 µM each time.

Turning to `NC(=S)N/N=C1/CCCC2CCCC[C@@H]12` (stereo partly specified), the TGI in experiment [1], in [2], in experiment [16], in experiment [4], in [5] and in experiment [6] was > 100 µM throughout. Further, the TGI in [7], in experiment [8], in [9], in [17], in [10] and in [11] was > 100 µM throughout. The TGI in [12], in [13], in experiment [14] and in experiment [15] was > 100 µM throughout.

As to `CC(O)c1ccc[n+](Cc2ccccc2)c1` (stereo unspecified), the TGI in [1], in [2], in experiment [3], in experiment [4], in [5] and in experiment [6] was > 400 µM throughout. Moreover, the TGI in experiment [8], in [9], in experiment [10], in [11], in experiment [12] and in experiment [13] was > 400 µM in each case. Further, the TGI in [14] and in experiment [15] was > 400 µM in each case.

Regarding `CCCCCCCCCCCCCCCCOCC(CP(=O)([O-])OCC[n+]1ccccc1)OC` (stereo unspecified), the TGI worked out at 24.1 µM in experiment [1]; 22.1 µM in experiment [3]; 17.6 µM in [4]; 5.62 µM in [5]; 27.1 µM in experiment [6]; 24.1 µM in [7]. In addition, the TGI amounted to 30 µM in [9]; 11.8 µM in [10]; 24.9 µM in [11]; 31.9 µM in [12]; 15.3 µM in [13]; 31.6 µM in experiment [14]. Further, the TGI in experiment [15] is 28.8 µM.

With `N#CCCN(c1ccc(C=Nc2ccccc2Cl)cc1)S(=O)(=O)c1ccccc1`, the TGI in experiment [1], in experiment [2], in [3], in experiment [4], in [5] and in experiment [6] was > 100 µM throughout. Besides, the TGI in [7], in experiment [8], in experiment [9], in experiment [10], in [11] and in [12] was > 100 µM in each case. Further, the TGI in experiment [13], in experiment [14] and in experiment [15] was > 100 µM in each case.

Consider `CC1=NN(C(=O)CC(=O)NC(=O)CC(=O)Nc2ccccc2F)C(=O)C1N=Nc1ccc([N+](=O)[O-])cc1` (stereo unspecified), for which the TGI was 86.2 µM in experiment [1]; > 100 µM in experiment [2]; 35.5 µM in experiment [3]; > 100 µM in experiment [4]; > 100 µM in experiment [5]; 81.3 µM in experiment [6]. Moreover, the TGI in [7] is > 100 µM; in experiment [8] it was > 100 µM; in experiment [9] it was > 100 µM; in experiment [10], 46.3 µM; in experiment [11] it was > 100 µM; in [12], > 100 µM. Further, the TGI in experiment [14] came out at 41.1 µM; in [15], 76.1 µM.

Regarding `Cn1ccc2c(C(=O)c3ccccc3)cccc2c1=O`, the TGI in [1], in [2], in [3], in experiment [4], in experiment [5] and in experiment [6] was > 100 µM in each case. In addition, the TGI in experiment [7], in experiment [9], in [10], in experiment [11], in experiment [12] and in experiment [13] was > 100 µM each time. Also, the TGI in experiment [14] and in experiment [15] was > 100 µM throughout.

As for `O=C(O)CCc1cccc2c1oc1c(CCC(=O)O)cccc12`, the TGI in experiment [1], in [2], in [3], in [4], in [5] and in experiment [6] was > 100 µM each time. The TGI in experiment [7], in experiment [8], in experiment [9], in experiment [10], in [11] and in experiment [12] was > 100 µM each time. Besides, the TGI in [13], in experiment [14] and in experiment [15] was > 100 µM throughout.

On to `Cc1ccc2c(c1)CC1(Cc3c(C)cccc3C1=O)C2=O` (stereo unspecified), for which the TGI in [1], in experiment [2], in experiment [16], in experiment [3], in [4] and in experiment [5] was > 100 µM throughout. For the same compound, the TGI in [6], in experiment [7], in [8], in [9], in experiment [17] and in experiment [10] was > 100 µM throughout. Besides, the TGI in [11], in [13], in experiment [14] and in [15] was > 100 µM each time.

As for `CC(=O)N1C(NN(C)C)CCN1c1ccccc1` (stereo unspecified), the TGI in experiment [1], in [16], in [4], in experiment [5], in experiment [7] and in experiment [9] was > 10 µM each time. The TGI in [17], in experiment [10], in [11], in [13], in experiment [14] and in experiment [15] was > 10 µM in each case.

Regarding `CC(=O)C(CN(Cc1ccccc1)Cc1ccccc1)C(c1ccccc1)c1c(O)c2ccccc2oc1=O` (stereo unspecified), the TGI in experiment [1], in [2], in experiment [3], in experiment [4], in experiment [5] and in experiment [6] was > 100 µM throughout. Moreover, the TGI in [7], in experiment [8], in [9], in experiment [10], in experiment [11] and in experiment [12] was > 100 µM each time. Moreover, the TGI in [13], in [14] and in [15] was > 100 µM each time.

Regarding `COC(=O)NC12CC3CC(CC(F)(C3)C1)C2`, the TGI in experiment [1], in [2], in [3], in experiment [4], in experiment [5] and in experiment [6] was > 100 µM each time. The TGI in [8], in experiment [9], in experiment [10], in experiment [12], in experiment [14] and in experiment [15] was > 100 µM throughout.

With `COc1ccc(/C=C2\N=C(SC)N(CN3CCCCC3)C2=O)cc1`, the TGI in experiment [1], in experiment [2], in experiment [16], in experiment [3], in experiment [4] and in experiment [5] was > 100 µM in each case. The TGI in experiment [6], in experiment [7], in experiment [8], in experiment [9], in [17] and in experiment [10] was > 100 µM throughout. Also, the TGI in experiment [11], in experiment [12], in [13] and in experiment [14] was > 100 µM throughout.

In the case of `CC(C)C(Sc1nc(-c2ccccc2)c(-c2ccccc2)[nH]1)C(=O)NN` (stereo unspecified), the TGI in [1], in experiment [2], in [3], in experiment [4], in experiment [5] and in experiment [6] was > 100 µM in each case. For the same compound, the TGI in experiment [7], in experiment [8], in experiment [9], in [10], in experiment [11] and in [12] was > 100 µM each time. The TGI in [14] and in [15] was > 100 µM throughout.

Turning to `COC(=O)C1(C(=O)OC)Cc2ccc(C)cc2C2=C1C(=O)c1ccccc1C2=O`, the TGI was > 100 µM in [1]; 31.7 µM in experiment [2]; 36.9 µM in [16]; 40.3 µM in experiment [3]; 44.3 µM in experiment [4]; 59.6 µM in experiment [5]. Also, the TGI in experiment [6] turned out to be 14.9 µM; in experiment [7] it was 23.7 µM; in [8], 35.5 µM; in experiment [9] it was 34.6 µM; in experiment [17] it was 31.3 µM; in experiment [11], 48.9 µM. In addition, the TGI in experiment [12] was 30.7 µM; in experiment [13], > 100 µM; in [14], 45.8 µM; in experiment [15] it was 31.2 µM.

For the compound `CN(C)CC1CCCC(CN(C)C)C1=NOC(=O)c1ccccc1` (stereo unspecified), the TGI in [1], in [2], in experiment [3], in experiment [4], in experiment [5] and in experiment [6] was > 100 µM throughout. For the same compound, the TGI in experiment [8], in experiment [9], in experiment [10], in experiment [11], in [12] and in experiment [13] was > 100 µM in each case. In addition, the TGI in [14] and in experiment [15] was > 100 µM throughout.

Turning to `COc1ccc(N2C(=O)C3c4[nH]c5ccccc5c4C4CC(C)CC(C)C4C3C2=O)cc1` (stereo unspecified), the TGI in [1], in experiment [2], in experiment [3], in [4], in [7] and in experiment [9] was > 100 µM throughout. In addition, the TGI in experiment [10], in experiment [11], in experiment [13], in experiment [14] and in [15] was > 100 µM throughout.

For the compound `COc1ccc2c(c1)Oc1cc(O)ccc1[C@@H]2c1ccccc1C(=O)NC(C)c1ccccc1` (stereo partly specified), the TGI in experiment [1] was found to be 42.5 µM; in [2], 41.1 µM; in [3], 24.8 µM; in experiment [4], 41.3 µM; in experiment [5], 33.9 µM; in experiment [6], 34.5 µM. Further, the TGI in [8] stood at 30.5 µM; in [9], 46.7 µM; in [10] it was 39.1 µM; in experiment [11], 52.8 µM; in experiment [12], 46.6 µM; in experiment [14], 38.9 µM. The TGI in experiment [15] is 32.7 µM.

Turning to `Oc1cc(-c2ccc(Cl)cc2)cn2c1nc1ccccc12`, the TGI in experiment [16], in [3], in experiment [4], in experiment [5], in experiment [6] and in experiment [7] was > 100 µM in each case. Also, the TGI in experiment [9], in experiment [17], in experiment [11], in experiment [14] and in [15] was > 100 µM throughout.
